Consider eight compounds from ChEMBL document CHEMBL1157176, “Total syntheses of (+/-)-ovalicin, C4(S *)-isomer, and its C5-analogs and anti-trypanosomal activities” (Bioorg Med Chem, 2008).

Structures are written as SMILES. Activity calls are given as the source filed them. No cut-off for these calls is given here.

One assay relates to Trypanosoma brucei. As to the kind of experiment: Antitrypanosomal activity against Trypanosoma brucei 427 after 48 hrs by luciferase assay. The class given is functional, organism-based. As to conditions: Trypanosoma brucei, 427, 48 h.
On to `CO[C@@H]1[C@H](O[Si](C)(C)C(C)(C)C)CC[C@]2(CO2)[C@@]1(O)/C(C)=C/CC=C(C)C` (relative stereo), for which 0.4 µM corresponded to half-maximal inhibition (IC50).

As for `O=C(O[C@H]1CC[C@]2(CO2)[C@H](O)[C@@H]1O)c1ccccc1` (relative stereo), it took 325 µM to reach half-maximal inhibition (IC50).

`CO[C@@H]1[C@]2(CC[C@H](O[Si](C)(C)C(C)(C)C)[C@@]1(O)/C(C)=C/CC=C(C)C)CO2` (relative stereo): half-maximal inhibition (IC50) required 0.28 µM.

As to `CO[C@@H]1[C@@H](OC(=O)c2ccccc2)CC[C@]2(CO2)[C@]1(O)/C(C)=C/CC=C(C)C` (relative stereo), the IC50 (in general, the concentration needed to halve the response being measured) came to 4.2 µM.

Turning to `CO[C@H]1C(=O)[C@]2(CC[C@@H]1OC(=O)c1ccccc1)CO2` (relative stereo), the midpoint of inhibition, the IC50, lay at 47.3 µM.

For `CO[C@@H]1C(=O)CC[C@]2(CO2)[C@]1(O)/C(C)=C/CC=C(C)C` (relative stereo), half-maximal inhibition (IC50) required 41.5 µM.

`O=C(O[C@@H]1CC[C@]2(CO2)[C@@H](O)[C@H]1O)c1ccccc1` (relative stereo) showed an IC50 of 0.72 µM.

In another assay the test system is HL-60. As to the kind of experiment: Antiproliferative activity against human HL60 cells. It counts as functional, cell-based.
Settings: not given
Turning to `CO[C@@H]1C(=O)CC[C@]2(CO2)[C@]1(O)[C@@]1(C)O[C@@H]1CC=C(C)C` (relative stereo), the result was Active.
